For assay [1], the system named is androgen target organs of castrate immature male rats. Description: Anti-androgenic activity in the castrate immature rat assay. The note with it: testosterone alone sc. In kind it is in vivo. The procedure: The oral anti-androgenic activity of 6-methyl-6-dehydro-17α-ethynylprogesterone was evaluated in the castrate immature male rat assay [Lerner et al., Proc. Soc. […] The assay is briefly described in the footnotes to Table 11.
*This assay employs castrate immature rats. For methods refer to Lerner,
L. J., A. Bianchi and A. Borman, Proc. Soc.
**Groups of rats (7/group) were given daily injections of 0.3 ml sesame
oil (control) or compound (in 0.3 ml sesame oil) for 7 days. Some groups
also concurrently received progestational compounds by the sc or oral
route of administration in order to evaluate antiandrogenic activity. One
day after the final doses, the animals were sacrificed and the androgen
target organs indicated were weighed.
***Statistically significant (p < 0.05) lower organ weights versus the
testosterone, sc, (400 μg/rat/day) group as determined by Analysis of
Variance coupled with Duncan's Multiple Range Test.

Assay [2] concerns the target T1, Cytosol Progesterone Receptor of the Estrogen-primed Immature Rabbit Uterus (Oryctolagus cuniculus, UniProt P06186).
T1 construct: cytosol progesterone receptor of the estrogen-primed immature rabbit uterus; tissue Dutchland Laboratories, Inc., Denver, Pa (animals); host or cells: uterus cytosol of estradiol-treated immature female New Zealand White rabbits
T1 sequence (P06186 1-930): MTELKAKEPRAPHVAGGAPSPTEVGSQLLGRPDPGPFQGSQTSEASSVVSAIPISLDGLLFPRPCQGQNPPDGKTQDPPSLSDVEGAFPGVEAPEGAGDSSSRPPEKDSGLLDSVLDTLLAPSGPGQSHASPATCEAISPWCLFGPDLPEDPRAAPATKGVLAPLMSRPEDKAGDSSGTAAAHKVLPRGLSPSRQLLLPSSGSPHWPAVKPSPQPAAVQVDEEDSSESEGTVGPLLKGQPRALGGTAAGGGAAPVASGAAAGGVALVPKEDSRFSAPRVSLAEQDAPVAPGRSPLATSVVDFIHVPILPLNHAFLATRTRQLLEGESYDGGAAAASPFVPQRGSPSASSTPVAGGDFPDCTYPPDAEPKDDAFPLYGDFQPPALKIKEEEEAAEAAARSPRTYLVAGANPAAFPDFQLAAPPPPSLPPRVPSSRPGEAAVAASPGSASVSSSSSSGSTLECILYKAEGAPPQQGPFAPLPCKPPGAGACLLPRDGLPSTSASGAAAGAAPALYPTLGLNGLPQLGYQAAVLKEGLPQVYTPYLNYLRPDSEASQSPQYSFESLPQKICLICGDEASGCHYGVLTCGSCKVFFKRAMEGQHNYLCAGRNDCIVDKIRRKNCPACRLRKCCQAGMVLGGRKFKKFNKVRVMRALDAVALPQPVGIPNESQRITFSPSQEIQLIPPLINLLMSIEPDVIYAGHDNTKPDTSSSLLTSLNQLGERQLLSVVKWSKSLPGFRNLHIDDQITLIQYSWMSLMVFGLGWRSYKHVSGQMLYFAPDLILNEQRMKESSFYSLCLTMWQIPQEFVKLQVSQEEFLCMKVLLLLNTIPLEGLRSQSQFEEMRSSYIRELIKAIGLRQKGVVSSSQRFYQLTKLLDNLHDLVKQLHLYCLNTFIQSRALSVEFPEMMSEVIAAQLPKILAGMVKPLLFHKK
Description: Relative binding affinity for progesterone receptor (competition with 3H-progesterone). Also on record: species or system rabbit (New Zealand White). The procedure:
RBA values recorded at 0° C. after short incubation times (e.g., 2 hr) mainly reflect differences in the association rate constants of the competing ligands, whereas those measured after long incubation times (e.g., 16 to 24 hr) and/or higher temperatures predominantly are influenced by differences in the dissociation rate constants of the competing ligands. RBA's determined after short incubation times primarily reflect the association of the competitor compared to the natural hormone. Conversely, RBA's measured after long incubation times reflect the dissociation rate of the competitor compared to the natural hormone.
The assay components are combined, allowed to equilibrate, and unbound radioactivity removed by charcoal adsorption.
Animal species. Immature female New Zealand White rabbits weighing 0.8 to 1.0 kg (Dutchland Laboratories, Inc., Denver, Pa).
Pretreatment. Subcutaneous treatment with 15 μg 17β-estradiol/0.6 ml sesame oil each morning (0830 to 0930 hr) for three days. Animals sacrificed 24 hr after final injection.
Tissue. Uterus; each uterus weighed about 1.0 g and two or three uteri were pooled for each assay.
Buffer. (A) 0.01M TES, pH 7.4, 1 mM EDTA, 0.012M thioglycerol and 30% glycerol for cytosol preparation and ^3 H-steroid, unlabeled hormone and compound solutions. (B) 0.01M TES, pH 7.4, 1 mM EDTA and 0.012M thioglycerol for charcoal solution.
Homogenization. Five or six 5-second bursts with 30 second cooling periods between bursts using Brinkman Polytron Pt. 10 at 3.5 rheostat setting.
Temperature. 0°-4° C. for all steps.
Centrifugation. 45,000 rpm for 1 hr, 50 Ti rotor, Beckman L8-80 ultracentrifuge.
Incubation. 16-18 hr at 4°-6° C.
Concentations. 1×10^-10 M to 1×10^-5 M (7 concentrations).
Method. Charcoal adsorption method used to remove unbound radioactivity. Five-tenths ml of dextran-coated charcoal (0.5% Norit A and 0.05% dextran T-70) added to all tubes except total radioactivity tubes (0.5 ml buffer [B] added), tubes vortexed 3-5 sec, allowed to sit for 10 minutes and centrifuged 10 minutes at 2000 rpm in Beckman TJ-6 centrifuge at 0°-4° C.
Data Interpretation. […] The relative binding affinity (RBA) of each compound was calculated by using the following equation. [formula] where

In assay [3] the test system is uterine endometrium of estrone-primed immature rabbits. Description: Clauberg assay (progestational activity, McPhail). In kind it is in vivo, rabbit (New Zealand White). The note with it: for McPhail Index (0-4) (X ± S.D.): 0 none, 4 maximal.
[4] abbreviates: Assay 4, 16-18 hour incubation, progesterone = 100.
Setting [5] is: Assay 5, 16-18 hour incubation, progesterone = 100.
Setting [6] is: Assay 2, 16-18 hour incubation, progesterone = 100, 5α-dihydro-17α-ethynyl: lot 1.
[7] abbreviates: Assay 3, 16-18 hour incubation, progesterone = 100, 5α-dihydro-17α-ethynyl: lot 1.

Regarding `C[C@]12CC[C@H]3[C@@H](CCC4=CC(=O)CC[C@@]43C)[C@@H]1CC[C@@H]2O` [Testosterone], in assay [1] (25 μg/rat daily), the “Levator Ani weight (X ± S.D.)” value worked out at 36 ± 4 mg, the “Seminal Vesicles weight (X ± S.D.)” value came to 23 ± 12 mg and the “Ventral Prostate weight (X ± S.D.)” value was 18 + 5 mg. Also, in assay [1] (100 μg/rat daily), the “Levator Ani weight (X ± S.D.)” value stood at 53 ± 6 mg, the “Seminal Vesicles weight (X ± S.D.)” value is reported as 66 ± 6 mg and the “Ventral Prostate weight (X ± S.D.)” value is on record as 35 ± 5 mg. Moreover, in assay [1] (400 μg/rat daily), the “Levator Ani weight (X ± S.D.)” value came to 63 ± 14 mg, the “Seminal Vesicles weight (X ± S.D.)” value was determined as 163 ± 43 mg and the “Ventral Prostate weight (X ± S.D.)” value is listed as 70 ± 22 mg.
The compound `CC(=O)[C@H]1CC[C@H]2[C@@H]3C[C@H](C)C4=CC(=O)CC[C@]4(C)[C@H]3CC[C@]12C` [6α-Methylprogesterone, reference compound] returned an RBA in assay [2] (setting [4]) of 57%.
As for `C#C[C@]1(C(C)=O)CC[C@H]2[C@@H]3CCC4=CC(=O)CC[C@@H]4[C@H]3CC[C@@]21C` [17α-Ethynyl-19-norprogesterone, 17α-ethynyl-19-nor-4-pregnene-3,20-dione], the figures for the RBA in assay [2] (setting [4]) and in assay [2] (setting [5]) were 100% and 133%, respectively. Also, the “progesterone receptor binding, in words” value in assay [2] (compared with progesterone) was “slightly greater than that of progesterone itself”. In addition, the “progestational potency relative to subcutaneous progesterone, in words” value in assay [3] (compound given orally, progesterone sc) was “roughly comparable to subcutaneously administered progesterone”. Further, in assay [3] (compound given sc), the “progestational potency relative to progesterone (sc)” value was “about 100 times”. Besides, the “Uterine Weight (X ± S.D.)” value in assay [3] (oral, 50 μg/rabbit daily) was determined as 1.41 ± 0.02 g; in assay [3] (oral, 100 μg/rabbit daily) it was 1.72 ± 0.36 g; in assay [3] (oral, 200 μg/rabbit daily), 1.70 ± 0.33 g; in assay [3] (oral, 400 μg/rabbit daily), 3.40 ± 1.14 g; in assay [3] (sc, 2.5 μg/rabbit daily), 2.64 ± 0.22 g; in assay [3] (sc, 5 μg/rabbit daily), 3.55 ± 0.54 g. Also, the “Uterine Weight (X ± S.D.)” value in assay [3] (sc, 10 μg/rabbit daily) came to 4.57 ± 0.67 g; in assay [3] (sc, 20 μg/rabbit daily), 4.94 ± 0.87 g. For the same compound, the “McPhail Index (0-4) (X ± S.D.)” value in assay [3] (oral, 50 μg/rabbit daily) was 0.38 ± 0.27; in assay [3] (oral, 100 μg/rabbit daily) it was 1.17 ± 1.10; in assay [3] (oral, 200 μg/rabbit daily), 0.83 ± 0.72; in assay [3] (oral, 400 μg/rabbit daily), 3.75 ± 0.10; in assay [3] (sc, 2.5 μg/rabbit daily), 3.25 ± 0.41; in assay [3] (sc, 5 μg/rabbit daily) it was 3.97 ± 0.05. In addition, the “McPhail Index (0-4) (X ± S.D.)” value in assay [3] (sc, 10 μg/rabbit daily) is reported as 3.92 ± 0.12; in assay [3] (sc, 20 μg/rabbit daily), 4.00 ± 0.00.
With `C#C[C@]1(C(C)=O)CC[C@H]2[C@@H]3CC[C@H]4CC(=O)CC[C@]4(C)[C@H]3CC[C@@]21C` [5α-Dihydro-17α-ethynylprogesterone, 17α-Ethynyl-5α-pregnane-3,20-dione], the “RBA, mean of assays (X±S.D.)” value in assay [2] (16 to 18 hour incubation at 0° C., spurious value 11 excluded) amounted to 154±23. In addition, the RBA was 11% in assay [2] (Assay 1, 16-18 hour incubation, progesterone = 100, 5α-dihydro-17α-ethynyl: lot 1); 186% in assay [2] (setting [6]); 144% in assay [2] (setting [7]); 133% in assay [2] (Assay 3, lot 2, 16-18 hour incubation, progesterone = 100); 211 in assay [2] (two-hour incubation at 0° C.). For the same compound, the “Uterine Weight (X ± S.D.)” value in assay [3] (oral, 100 μg/rabbit daily) turned out to be 1.00 g; in assay [3] (oral, 200 μg/rabbit daily), 1.30 ± 0.22 g; in assay [3] (oral, 400 μg/rabbit daily) it was 1.10 ± 0.08 g; in assay [3] (sc, 5 μg/rabbit daily), 0.90 ± 0.29 g; in assay [3] (sc, 10 μg/rabbit daily), 1.33 ± 0.09 g; in assay [3] (sc, 20 μg/rabbit daily), 1.03 ± 0.17 g. Moreover, the “Uterine Weight (X ± S.D.)” value in assay [3] (sc, 100 μg/rabbit daily) amounted to 1.18 ± 0.25 g; in assay [3] (sc, 200 μg/rabbit daily), 1.15 ± 0.07 g; in assay [3] (sc, 400 μg/rabbit daily), 1.24 ± 0.09 g. For the same compound, the “McPhail Index (0-4) (X ± S.D.)” value in assay [3] (oral, 100 μg/rabbit daily) amounted to 0; in assay [3] (oral, 200 μg/rabbit daily), 0.04 ± 0.06; in assay [3] (oral, 400 μg/rabbit daily), 0.04 ± 0.06; in assay [3] (sc, 5 μg/rabbit daily), 0.08 ± 0.12; in assay [3] (sc, 10 μg/rabbit daily), 0.29 ± 0.24; in assay [3] (sc, 20 μg/rabbit daily), 0.04 ± 0.06. In addition, the “McPhail Index (0-4) (X ± S.D.)” value worked out at 0.13 ± 0.13 in assay [3] (sc, 100 μg/rabbit daily); 0.58 ± 0.16 in assay [3] (sc, 200 μg/rabbit daily); 0.33 ± 0.06 in assay [3] (sc, 400 μg/rabbit daily). For the same compound, the “progestational response, in words” value in assay [3] (sc 5, 10, 20, 100, 200, 400 and oral 100, 200, 400 μg/rabbit/day) was “inactive at all doses examined”.
As to `C#C[C@@]1(C(C)=O)CC[C@H]2[C@@H]3C[C@H](C)C4=CC(=O)CC[C@]4(C)[C@H]3CC[C@@]21C` [6α-Methyl-17α-acetylpregn-4-ene-20-yn-3-one], the results for the RBA in assay [2] (setting [4]) and in assay [2] (setting [5]) were 5% and 6%, respectively.
In the case of `C#C[C@]1(C(C)=O)CC[C@H]2[C@@H]3CC[C@H]4CC(=O)CC[C@@H]4[C@H]3CC[C@@]21C` [17α-Ethynyl-19-nor-5α-pregnane-3,20-dione], the RBA came out at 67% in assay [2] (setting [4]) and 66% in assay [2] (setting [5]).
Take `C=C[C@]1(C(C)=O)CC[C@H]2[C@@H]3CC[C@H]4CC(=O)CC[C@]4(C)[C@H]3CC[C@@]21C` [5α-Dihydro-17α-vinylprogesterone]: the figures for the RBA in assay [2] (setting [6]) and in assay [2] (setting [7]) were 47% and 51%, respectively.

Source of the values: patent US4512986A, “Progrestationally active steroids” (priority 1983, dated 1985).
